≈ marks a conversion by molar mass, not a printed value. Where “and” joins values, the source holds several entries; their conditions need not be identical. Equal entries are not always repeated.
How the values were obtained:
Test in all cases: ≥ marks a high value that may be exact or a test limit, other limits are often not marked, values filed in µg/mL are converted to µM
Fusarium verticillioides = tested on: Fusarium verticillioides
Bacillus subtilis = tested on: Bacillus subtilis
[1] = tested on: Listeria monocytogenes KCTC 3710
Proteus vulgaris = tested on: Proteus vulgaris
[2] = tested on: Aspergillus flavus KCTC 9471
Salmonella typhimurium = tested on: Salmonella typhimurium
Pseudomonas aeruginosa = tested on: Pseudomonas aeruginosa
Staphylococcus aureus = tested on: Staphylococcus aureus
[3] = tested on: Aspergillus fumigatus KCTC 6145
Botrytis cinerea = tested on: Botrytis cinerea
[4] = tested on: Staphylococcus epidermidis
Trichosporon beigelii = tested on: Trichosporon beigelii
[5] = tested on: Escherichia coli O157:H7 ATCC 43895
Escherichia coli = tested on: Escherichia coli
[6] = tested on: Candida albicans KCTC 7270
Saccharomyces cerevisiae = tested on: Saccharomyces cerevisiae
[7] = tested on: Fusarium solani MTCC 10158
[8] = tested on: Proteus vulgaris KCTC 2433
[9] = tested on: Staphylococcus aureus ATCC 29213
[10] = tested on: Listeria monocytogenes ATCC 3710
[11] = tested on: Pseudomonas aeruginosa ATCC 15692
[12] = tested on: Bacillus subtilis KCTC 1998
[13] = tested on: Escherichia coli ATCC 25922
[14] = tested on: Pseudomonas aeruginosa ATCC 27853
[15] = tested on: Candida albicans ATCC 10231
[16] = tested on: Aspergillus brasiliensis ATCC 16404
[17] = tested on: Enterococcus faecalis ATCC 29212
[18] = tested on: Staphylococcus aureus ATCC 6538P
[19] = tested on: Staphylococcus aureus SR1550
[20] = tested on: Escherichia coli K-12 594
[21] = tested on: Salmonella typhimurium TA100
[22] = tested on: Micrococcus luteus DSM 20030
[23] = tested on: Candida albicans ATCC 14053
[24] = tested on: Micrococcus luteus ATCC 49732
[25] = tested on: Staphylococcus aureus ATCC 12600
[26] = tested on: Escherichia coli ATCC 11775
[27] = tested on: Candida albicans NCTC 3179
[28] = tested on: Staphylococcus aureus ATCC 25923
[29] = tested on: Fusarium oxysporum f. sp. lycopersici ATCC 201829
[30] = tested on: Aspergillus niger CECT 2694
[31] = tested on: Rhizopus stolonifer CECT 2344
[32] = tested on: Penicillium expansum EPS 26

For `CC[C@H](C)[C@H](NC(=O)[C@H](CCCCN)NC(=O)[C@H](CO)NC(=O)[C@H](Cc1ccccc1)NC(=O)[C@H](CC(C)C)NC(=O)[C@H](CCCCN)NC(=O)[C@H](CCC(=O)O)NC(=O)[C@H](CC(C)C)NC(=O)[C@H](CCCN=C(N)N)NC(=O)[C@H](CCCCN)NC(=O)[C@H](Cc1ccccc1)NC(=O)[C@@H](NC(=O)[C@H](CCCCN)NC(=O)[C@H](CCCCN)NC(=O)[C@H](C)N)C(C)C)C(=O)N[C@@H](Cc1ccccc1)C(=O)N[C@@H](CC(N)=O)C(=O)N[C@@H](Cc1ccccc1)C(=O)N[C@@H](CCCCN)C(N)=O` [AKKVFKRLEKLFSKIFNFK], the MIC (Fusarium verticillioides) was 12.5 µM (≈ 29.6 µg/mL), the MIC (Bacillus subtilis) was 1.56 µM (≈ 3.7 µg/mL) and the MIC [1] was 0.78 µM (≈ 1.85 µg/mL). The MIC (Proteus vulgaris) was 3.13 µM (≈ 7.42 µg/mL), the MIC [2] was no less than 50 µM and the MIC (Salmonella typhimurium) was 0.39 µM (≈ 0.925 µg/mL). It also gave an MIC (Pseudomonas aeruginosa) of 6.25 µM (≈ 14.8 µg/mL), an MIC (Staphylococcus aureus) of 3.13 µM (≈ 7.42 µg/mL) and an MIC [3] of no less than 35.4 µM. It also gave an MIC (Botrytis cinerea) of 12.5 µM (≈ 29.6 µg/mL), an MIC [4] of 6.25 µM (≈ 14.8 µg/mL) and an MIC (Trichosporon beigelii) of 3.13 µM (≈ 7.42 µg/mL). The MIC [5] was 6.25 µM (≈ 14.8 µg/mL), the MIC (Escherichia coli) was 3.13 µM (≈ 7.42 µg/mL) and the MIC [6] was 25 µM (≈ 59.3 µg/mL). It also gave an MIC (Saccharomyces cerevisiae) of 25 µM (≈ 59.3 µg/mL).
`CC(C)C[C@H](NC(=O)[C@H](C)NC(=O)[C@H](CCCCN)NC(=O)[C@H](CC(C)C)NC(=O)[C@H](CCCCN)NC(=O)[C@H](CCCN=C(N)N)NC(=O)[C@H](CCCN=C(N)N)NC(=O)[C@H](Cc1c[nH]c2ccccc12)NC(=O)[C@H](C)N)C(=O)N[C@@H](C)C(=O)N1CCC[C@H]1C(=O)N[C@@H](C)C(=O)N[C@@H](CCCCN)C(=O)N[C@@H](CCCCN)C(=O)N[C@@H](C)C(=O)N[C@@H](CCCCN)C(=O)N[C@H](C(=O)O)C(C)C` [AWRRKLKALAPAKKAKV] was tested, and the MIC [7] was 22.4 µM and ≥ 50 µM.
With `CC[C@H](C)[C@H](NC(=O)[C@H](Cc1cnc[nH]1)NC(=O)[C@H](Cc1cnc[nH]1)NC(=O)[C@@H](NC(=O)[C@H](CC(C)C)NC(=O)[C@H](Cc1cnc[nH]1)NC(=O)CNC(=O)[C@H](CCCCN)NC(=O)CNC(=O)[C@H](Cc1cnc[nH]1)NC(=O)[C@H](CCCCN)NC(=O)[C@@H](NC(=O)[C@H](CO)NC(=O)CNC(=O)[C@H](CCCCN)NC(=O)[C@H](Cc1ccccc1)NC(=O)[C@H](CCCN=C(N)N)NC(=O)[C@H](CCCCN)NC(=O)[C@@H](N)Cc1ccccc1)C(C)C)C(C)C)C(=O)NCC(=O)N[C@H](C(=O)N[C@@H](C)C(=O)N[C@@H](CC(C)C)C(N)=O)C(C)C` [FKRFKGSVKHGKGHLVHHIGVAL] the MIC [8] was 4 µM and 8 µM, the MIC [9] was 8 µM and 16 µM and the MIC [10] was 8 µM and 4 µM. For the same compound, the MIC [11] was ≥ 32 µM and 16 µM, the MIC [12] was 4 µM (≈ 10.2 µg/mL) and the MIC [13] was 2 µM and 4 µM.
Compound `CC[C@H](C)[C@H](NC(=O)[C@H](CCCCN)NC(=O)CNC(=O)[C@@H]1CCCN1C(=O)[C@H](Cc1cnc[nH]1)NC(=O)[C@H](CC(C)C)NC(=O)[C@H](CC(C)C)NC(=O)[C@H](Cc1ccc(O)cc1)NC(=O)[C@H](CS)NC(=O)CN)C(=O)N[C@@H](CS)C(=O)N[C@@H](Cc1ccc(O)cc1)C(=O)O` [GCYLLHPGKICY] has an MIC [14] greater than 64 µM, an MIC [9] greater than 64 µM and an MIC [15] greater than 64 µM. It also gave an MIC [16] of no less than 64 µM, an MIC [17] greater than 64 µM and an MIC [13] greater than 64 µM.
For `CC(C)C[C@H](NC(=O)[C@H](Cc1cnc[nH]1)NC(=O)[C@H](CC(C)C)NC(=O)[C@H](CC(C)C)NC(=O)[C@H](CC(C)C)NC(=O)[C@H](CC(C)C)NC(=O)[C@H](CC(C)C)NC(=O)[C@H](Cc1cnc[nH]1)NC(=O)[C@H](CC(C)C)NC(=O)[C@@H](N)Cc1cnc[nH]1)C(=O)N[C@@H](Cc1cnc[nH]1)C(N)=O` [HLHLLLLLHLH], the MIC [18] was 11.8 µM (≈ 16 µg/mL), the MIC [19] was 25.8 µM (≈ 35 µg/mL) and the MIC [20] was 25.8 µM (≈ 35 µg/mL).
`CC(C)C[C@H](NC(=O)CNC(=O)[C@H](CCCCN)NC(=O)[C@H](CS)NC(=O)[C@@H](NC(=O)[C@H](CCCN=C(N)N)NC(=O)[C@H](CCCCN)NC(=O)[C@H](CC(N)=O)NC(=O)[C@H](CC(N)=O)NC(=O)[C@H](CCC(N)=O)NC(=O)[C@H](CCCN=C(N)N)NC(=O)[C@@H](NC(=O)[C@H](CS)NC(=O)[C@@H](N)CCCCN)C(C)C)C(C)C)C(=O)N[C@@H](CCCN=C(N)N)C(=O)N[C@@H](CCCCN)C(=O)N[C@@H](CCCN=C(N)N)C(=O)N[C@@H](CC(C)C)C(=O)N[C@@H](CCCN=C(N)N)C(=O)N[C@@H](CCCCN)C(=O)N[C@@H](Cc1ccccc1)C(=O)N[C@@H](CCCN=C(N)N)C(=O)N[C@@H](CC(N)=O)C(=O)N[C@@H](CCCCN)C(N)=O` [KCVRQNNKRVCKGLRKRLRKFRNK] gave an MIC [21] of 12.6 µM (≈ 38.3 µg/mL) and an MIC [22] of 13.5 µM (≈ 40.8 µg/mL).
For `CSCC[C@H](NC(=O)[C@@H](NC(=O)[C@@H](N)[C@@H](C)O)[C@@H](C)O)C(=O)N1CCC[C@H]1C(=O)N[C@@H](CC(C)C)C(=O)N[C@@H](Cc1c[nH]c2ccccc12)C(=O)O` [TTMPLW], the MIC [23] was no less than 144 µM, the MIC [24] was no less than 64 µM and the MIC [25] was no less than 193 µM. For the same compound, the MIC [26] was no less than 193 µM.
`CC[C@H](C)[C@H](NC(=O)[C@H](CCCCN)NC(=O)[C@@H](NC(=O)[C@@H](NC(=O)[C@H](C)NC(=O)[C@@H]1CCCN1C(=O)[C@H](CC(C)C)NC(=O)[C@H](Cc1c[nH]c2ccccc12)NC(=O)[C@@H](N)[C@@H](C)O)C(C)C)[C@@H](C)CC)C(=O)N[C@@H](CCC(N)=O)C(=O)N[C@@H](C)C(=O)N[C@@H](Cc1cnc[nH]1)C(=O)N[C@@H](Cc1c[nH]c2ccccc12)C(=O)N[C@@H](CCCN=C(N)N)C(=O)NCC(=O)N[C@@H](Cc1ccc(O)cc1)C(=O)N[C@@H](CCCN=C(N)N)C(=O)N[C@@H](CCC(N)=O)C(=O)N[C@@H](CCCN=C(N)N)C(=O)N[C@@H](CCCCN)C(=O)N[C@H](C(=O)N[C@@H](Cc1ccc(O)cc1)C(=O)N[C@@H](CC(C)C)C(=O)O)[C@@H](C)CC` [TWLPAVIKIQAHWRGYRQRKIYL] showed an MIC [27] of 24.8 µM (≈ 72 µg/mL), an MIC [28] of 1.66 µM (≈ 4.8 µg/mL) and an MIC [13] of 1.97 µM (≈ 5.7 µg/mL).
`CC[C@H](C)[C@H](NC(=O)[C@H](CCCCN)NC(=O)[C@H](CCCCN)NC(=O)[C@H](Cc1ccccc1)NC(=O)[C@H](CC(C)C)NC(=O)[C@H](CCCCN)NC(=O)[C@@H](N)Cc1c[nH]c2ccccc12)C(=O)N[C@@H](CC(C)C)C(=O)N[C@@H](CCCCN)C(=O)N[C@H](C(=O)N[C@@H](CC(C)C)C(=O)O)C(C)C` [WKLFKKILKVL] showed an MIC [29] of 22.4 µM (≈ 31.7 µg/mL), an MIC [30] of 22.4 µM (≈ 31.7 µg/mL) and an MIC [31] of no less than 100 µM. For the same compound, the MIC [32] was no less than 100 µM.

Source: DBAASP
